For experiment [1], the system named is human lung carcinoma cells (A549). Description: Cytotoxicity, MTT assay, A549. The class given is cell-based. The note with it: for IC50: Homo sapiens, A549, MTT, 24 hours; for A549 SI: quotient of the IC50 values towards nonmalignant LO2 cells. From the text: (§1) Compounds 2a–d, 3a–e, 4a–e, 5a–d, and 6a–c were screened against human neoplastic cell lines such as human lung carcinoma cells (A549), human gastric adenocarcinoma cells (SGC7901), human cervical carcinoma cells (HeLa), human liver hepatocellular carcinoma cell line (Hepg2), human chronic myelogenous leukemia cell line (K562), human acute mononuclear granulocyte leukemia (THP-1), human normal heptical cell line (LO2) (Table 1) using modified MTT assay (3-(4,5-dimethyl-2-thiazolyl)-2,5-diphenyl-2-H-tetrazolium bromide, MTT, Dojindo Laboratories, Tokyo, Japan). All cell lines were maintained at 37 °C in a humidified 5% CO2 and 95% air atmosphere. The HePG2 cell lines were cultured in DMEM containing 10% fetal bovine serum. Other cell lines were grown in medium 1640 and supplemented with 10% fetal bovine serum. […] Controls were prepared with 0.1% DMSO (v/v) only. The cells were seeded in a 96-well plate in 200 µL medium per well at a density of 1 × 10^4 cells/well for 24 hours. The cells were treated with serial concentrations of compound and incubated for 24 hours. Cells with only culture media were used as control. After the media was removed, 20 µL of MTT (5 mg/mL) was added then the plates were incubated for 4 hours at 37 °C in cell culture incubator. The MTT containing media were removed and then 150 µL of DMSO was added to dissolve the dark-blue formazan crystals. The optical density (OD) was measured by a multi-well plate reader (TECAN, Männedorf, Switzerland) at 570 nm. The results are expressed as a decrease in the cell viability (%) in comparison to untreated controls. The concentration of each compound was examined in triplicate, and the IC50 values are expressed in Table 1. The concentrations of the compounds were 50, 20, 10, 5, 2.5, 1, 0.5, 0.1, 0.05 and 0.01 µg/mL. Doxorubicin (DOX) and Curcumin were used as positive controls. […] The concentrations of curcumin used were 100, 50, 25, 12.5, 6.25, 3.125, 1, 0.5 and 0.1 µg/mL.
Background: Tetrazolium assays rely on reduction of a dye to a coloured formazan, in cell work by metabolically active cells.

The subject of experiment [2] is human gastric adenocarcinoma cells (SGC7901). In words: Cytotoxicity, MTT assay, SGC7901. The class given is cell-based. The note with it: for IC50: Homo sapiens, SGC-7901, MTT, 24 hours; for SGC7901 SI: quotient of the IC50 values towards nonmalignant LO2 cells.
Description: as §1

For experiment [3], the system named is human liver hepatocellular carcinoma cell line (Hepg2). Description: Cytotoxicity, MTT assay, HePG2. Type of experiment: cell-based. To be noted: for IC50: Homo sapiens, HepG2, MTT, 24 hours; for HePG2 SI: quotient of the IC50 values towards nonmalignant LO2 cells.
Description: as §1, with “µg/mL.” for “µg/mL. Doxorubicin (DOX) and Curcumin were used as positive controls.”

The test system of experiment [4] is human cervical carcinoma cells (HeLa). Description: Cytotoxicity, MTT assay, HeLa. The class given is cell-based. The note with it: for IC50: Homo sapiens, HeLa, MTT, 24 hours; for HeLa SI: quotient of the IC50 values towards nonmalignant LO2 cells.
Description: as §1

Experiment [5] deals with human chronic myelogenous leukemia cell line (K562). Description: Cytotoxicity, MTT assay, K562. The class given is cell-based. To be noted: for IC50: Homo sapiens, K562, MTT, 24 hours; for K562 SI: quotient of the IC50 values towards nonmalignant LO2 cells.
Description: as §1

In experiment [6] the test system is human acute mononuclear granulocyte leukemia (THP-1). Description: Cytotoxicity, MTT assay, THP-1. The class given is cell-based. The note with it: for IC50: Homo sapiens, THP-1, MTT, 24 hours; for THP-1 SI: quotient of the IC50 values towards nonmalignant LO2 cells.
Description: as §1

In experiment [7] the test system is human normal heptical cell line (LO2). Description: Cytotoxicity, MTT assay, non-malignant LO2. Type of experiment: cell-based. The note with it: 24 hours, non-malignant cells.
Description: as §1

Experiment [8] relates to human carcinoma cell lines A549, SGC7901, HePG2, HeLa, K562, THP-1. In words: Cytotoxicity, MTT assay, panel of human carcinoma cell lines (average / overall). Type of experiment: cell-based. To be noted: for IC50: Homo sapiens.
Description: as §1
The cytotoxicity activities against human carcinoma cell lines A549, SGC7901, HePG2, HeLa, K562, THP-1 and cytotoxicity toward LO2 cell lines were evaluated by MTT method. DOX and curcumin were used as positive control. The selectivity index (SI) is the quotient of the IC50 values towards nonmalignant LO2 cells. […] Especially for 4a–e, 5a–d, and 6a–c, this ratio can reach about 92%.

A further experiment has as its system HepG2 xenografts. Description: In vivo antitumor efficacy, HepG2-bearing nude mice. Details: species or system Balb/c nude mice. To be noted: DOX 1.0 mg/kg every two days for 20 days. How it is done: The antitumor effect was investigated on the seven-week-old female Balb/c nude mice (n = 30) weighing 19–21 grams (Shanghai Laboratory Animal Center). Briefly, 0.2 mL HepG2 cells (1 × 10^7/mL) were inoculated subcutaneously into the alar left of each mouse. On the third day after the inoculation, the HepG2-bearing mice were randomly divided into five groups (n = 6/group) and administrated the according drug or solvent. […] The control group was administrated of saline as negative control. The body weight and tumor volumes calculation were recorded from the day of treatment, and the tumor volumes were calculated using the following equation: tumor volume = length × (width)^2 × π/6. Animal experiments were reviewed and approved by the Binzhou Medical University Experimental Animal Committee.

The mark [9] stands for this setting: average over the six carcinoma cell lines, read-out: Ave IC50.
[10] abbreviates: average over the six carcinoma cell lines.

Where two headings read alike, the source gives them in different places.

Broadly, the IC50 is the point on the concentration scale where inhibition reaches its midpoint.

Regarding `COc1cccc2c1C(=O)c1c(O)c3c(c(O)c1C2=O)C[C@@](O)(C(=O)CO)C[C@@H]3O[C@H]1C[C@H](N)[C@H](O)[C@H](C)O1` [DOX, Doxorubicin, reference compound], the concentration for half-maximal inhibition (IC50) was determined as 3.8 ± 0.1 µM in experiment [1]; 7 ± 0.4 µM in experiment [2]; 0.6 ± 0.1 µM in [3]; 2.1 ± 0.3 µM in experiment [4]; 1.6 ± 0.2 µM in experiment [5]; 0.5 ± 0.2 µM in experiment [6]. The IC50 in [7] stood at 6.1 ± 0.5 µM; in experiment [8] (setting [9]), 2.6 µM. Besides, the tumor growth inhibition result with HepG2 xenografts is “suppressed significantly”.

Take `Nc1cccc(/C=C2\CCC/C(=C\c3cccc(N)c3)C2=O)c1` [2a, (2E,6E)-2,6-bis(3-aminobenzylidene)cyclohexanone]: the IC50 in [1] is 7.9 ± 0.1 µM; in experiment [2], 9.4 ± 0.2 µM; in [3] it was 10.7 ± 0.5 µM; in experiment [4], 25.9 ± 3.7 µM; in experiment [5], 22.2 ± 1.9 µM; in [6] it was 6.2 ± 1.1 µM. Moreover, the IC50 in experiment [7] is 28.2 ± 3.9 µM; in experiment [8] (setting [9]), 13.7 µM; in experiment [8] (statement for all experimental carcinoma cell lines, read-out: IC50 values against human carcinoma cell lines) it was greater than 5 µM. In experiment [1], the “A549 SI” value is recorded as 3.6. Also, the “HePG2 SI” value in experiment [3] amounted to 2.6. Besides, the “HeLa SI” value in [4] is recorded as 1.1. Besides, the “K562 SI” value in experiment [5] worked out at 1.3. Besides, the “THP-1 SI” value in [6] was 4.5. Further, the “Ave SI” value in experiment [8] (setting [10]) was determined as 2.7.

Consider `O=C1/C(=C/c2cccc(/N=C/c3ccccc3O)c2)CCC/C1=C\c1cccc(/N=C/c2ccccc2O)c1` [3a], for which the half-maximal inhibitory concentration (IC50) was 7.4 ± 0.3 µM in experiment [1]; 11.4 ± 0.2 µM in [2]; 3.3 ± 0.1 µM in experiment [3]; 9.9 ± 0.3 µM in experiment [4]; 3.4 ± 0.01 µM in experiment [5]; 1.5 ± 0.1 µM in experiment [6]. Also, the IC50 was found to be 18.2 ± 0.2 µM in experiment [7] and 6.1 µM in [8] (setting [9]). In addition, in experiment [1], the “A549 SI” value is 2.5. Further, the “SGC7901 SI” value in [2] is 1.6. Besides, the “HePG2 SI” value in experiment [3] turned out to be 5.6. In addition, the “HeLa SI” value in experiment [4] is 1.8. For the same molecule, the “K562 SI” value in experiment [5] was found to be 5.4. The “THP-1 SI” value in experiment [6] came to 12.4. Also, the “Ave SI” value in [8] (setting [10]) was 4.9.

Regarding `O=C1/C(=C/c2cccc(/N=C/c3cc(Br)ccc3O)c2)CCC/C1=C\c1cccc(/N=C/c2cc(Br)ccc2O)c1` [3c], the concentration for half-maximal inhibition (IC50) in experiment [1] is 10.6 ± 1.1 µM; in [2], 5.2 ± 0.8 µM; in experiment [3], 13.7 ± 1.1 µM; in experiment [4] it was 11.4 ± 0.9 µM; in experiment [5], 14 ± 0.1 µM; in experiment [6] it was 5.3 ± 0.01 µM. Moreover, the figures for the IC50 in [7] and in experiment [8] (setting [9]) were 12 ± 0.1 µM and 10 µM, respectively. Besides, in [1], the “A549 SI” value is on record as 1.1. The “SGC7901 SI” value in [2] is on record as 2.3. The “HePG2 SI” value in [3] is listed as 0.9. Besides, in experiment [4], the “HeLa SI” value turned out to be 1.0. In addition, the “K562 SI” value in [5] is reported as 0.9. Moreover, the “THP-1 SI” value in [6] came out at 2.3. The “Ave SI” value in [8] (setting [10]) was 1.4.

As for `CN1C/C(=C\c2cccc(/N=C/c3ccccc3O)c2)C(=O)/C(=C/c2cccc(/N=C/c3ccccc3O)c2)C1` [4a], the IC50 stood at 5.2 ± 0.4 µM in [1]; 8.3 ± 0.8 µM in experiment [2]; 2.59 ± 0.1 µM in experiment [3]; 6.3 ± 0.2 µM in experiment [4]; 2.8 ± 0.1 µM in experiment [5]; 0.9 ± 0.1 µM in experiment [6]. Further, the IC50 in experiment [7] is 10.6 ± 0.1 µM; in [8] (setting [9]) it was 4.3 µM. For the same molecule, the “A549 SI” value in experiment [1] stood at 2.1. The “SGC7901 SI” value in [2] is reported as 1.3. Further, in experiment [3], the “HePG2 SI” value was 4.1. The “HeLa SI” value in experiment [4] was found to be 1.7. For the same molecule, the “K562 SI” value in [5] is on record as 3.8. Further, the “THP-1 SI” value in experiment [6] was found to be 12.0. Also, the “Ave SI” value in experiment [8] (setting [10]) is on record as 4.2.
